Reference: publication PMC10952572, “Improved PIEZO1 agonism through 4‐benzoic acid modification of Yoda1” (British Journal of Pharmacology, 2023)
“Also recorded” adds a separate entry of the source.

How the values were obtained:
[1] = molecular target: T1, PIEZO1 channels endogenously expressed in HUVECs (Homo sapiens, UniProt Q92508); assay: Intracellular Ca2+ measurement in HUVECs; format: cell-based; conditions: peak ΔCa2+i, Hill fit, read-out: EC50 (estimated concentration for 50% effect)
T1 construct: HUVECs, which are a physiologically relevant cell type that endogenously expresses PIEZO1 channels; host or cells: HUVEC
Experimental: Human umbilical vein endothelial cells (HUVECs) purchased from PromoCell (#C‐12203) were maintained in endothelial cell […] medium 2 (ECGM‐2, PromoCell #C‐22111) supplemented with 500 pg·ml^−1 recombinant human vascular endothelial growth factor 165, 10 ng·ml^−1 recombinant human basic fibroblast growth factor, 200 ng·ml^−1 hydrocortisone, 22.5 μg·ml^−1 heparin and 2% (vol./vol.) fetal calf serum. […] After washing the cell monolayer with D‐PBS (Sigma #D8537), 2 ml pre‐warmed 0.05% trypsin– EDTA (Gibco #25300054) was added to 75 cm^2 flasks until the cells had detached (between 2 and 5 min at 37°C). Complete ECGM‐2 (8 ml) was added to inhibit the trypsin, the cells were counted and their density was adjusted before seeding into fresh vessels for maintenance cultivation or experimental purposes. The medium for maintenance of cultures was completely refreshed every 48 h. HUVECs were used for experiments after a minimum of three and a maximum of five passages. […]
HEK 293‐TREx cells and their stably transfected derivatives or transiently transfected HEK 293 or HeLa cells were seeded at a density of 7.5 × 10^4 cells per well into poly‐D‐lysine‐coated 96‐well plates. […] Measurements were made at room temperature on a 96‐well fluorescence plate reader (FlexStation 3, Molecular Devices, Sunnyvale, CA, USA) controlled by SoftMax Pro software v7.0.3. […]

[2] = tested on: 30 proteins including ion channels and receptors; assay: Eurofins Hit Profiling Screen PP70: remaining targets; format: binding; conditions: 5 μM; targets other than A2A and EP4
Experimental: (§1) These experiments were performed by Eurofins Scientific, and the methods below are from this company's information. Membrane protein/membrane amounts may have varied, and the concentrations used were adjusted as necessary. KC289 was tested at 5 μM.

[3] = molecular target: T2, Human recombinant prostanoid EP4 receptors (Homo sapiens, UniProt P35408); assay: Eurofins Hit Profiling Screen PP70: prostanoid EP4 receptor binding; conditions: 5 μM
T2 construct: host or cells: Chem-1 cells
Experimental: as §1
Human recombinant prostanoid EP4 receptors expressed in Chem‐1 cells were used in modified MES buffer pH 6.0. A 3 μg·ml^−1 (see footnote 1) aliquot was incubated with 1 nM [^3H]PGE2 for 120 min at 25°C. Non‐specific binding was estimated in the presence of 10 μM PGE2 . Receptors were filtered and washed, and the filters were then counted to determine [^3H]PGE2 specifically bound.

mouse PIEZO2 (mPIEZO2) = tested on: mouse PIEZO2 (mPIEZO2); design: method as in Syeda et al., 2015; conditions: mPIEZO2 overexpressed in HEK 293 cells; ref Syeda et al., 2015; cited from earlier work

T1 sequence (Q92508 whole entry): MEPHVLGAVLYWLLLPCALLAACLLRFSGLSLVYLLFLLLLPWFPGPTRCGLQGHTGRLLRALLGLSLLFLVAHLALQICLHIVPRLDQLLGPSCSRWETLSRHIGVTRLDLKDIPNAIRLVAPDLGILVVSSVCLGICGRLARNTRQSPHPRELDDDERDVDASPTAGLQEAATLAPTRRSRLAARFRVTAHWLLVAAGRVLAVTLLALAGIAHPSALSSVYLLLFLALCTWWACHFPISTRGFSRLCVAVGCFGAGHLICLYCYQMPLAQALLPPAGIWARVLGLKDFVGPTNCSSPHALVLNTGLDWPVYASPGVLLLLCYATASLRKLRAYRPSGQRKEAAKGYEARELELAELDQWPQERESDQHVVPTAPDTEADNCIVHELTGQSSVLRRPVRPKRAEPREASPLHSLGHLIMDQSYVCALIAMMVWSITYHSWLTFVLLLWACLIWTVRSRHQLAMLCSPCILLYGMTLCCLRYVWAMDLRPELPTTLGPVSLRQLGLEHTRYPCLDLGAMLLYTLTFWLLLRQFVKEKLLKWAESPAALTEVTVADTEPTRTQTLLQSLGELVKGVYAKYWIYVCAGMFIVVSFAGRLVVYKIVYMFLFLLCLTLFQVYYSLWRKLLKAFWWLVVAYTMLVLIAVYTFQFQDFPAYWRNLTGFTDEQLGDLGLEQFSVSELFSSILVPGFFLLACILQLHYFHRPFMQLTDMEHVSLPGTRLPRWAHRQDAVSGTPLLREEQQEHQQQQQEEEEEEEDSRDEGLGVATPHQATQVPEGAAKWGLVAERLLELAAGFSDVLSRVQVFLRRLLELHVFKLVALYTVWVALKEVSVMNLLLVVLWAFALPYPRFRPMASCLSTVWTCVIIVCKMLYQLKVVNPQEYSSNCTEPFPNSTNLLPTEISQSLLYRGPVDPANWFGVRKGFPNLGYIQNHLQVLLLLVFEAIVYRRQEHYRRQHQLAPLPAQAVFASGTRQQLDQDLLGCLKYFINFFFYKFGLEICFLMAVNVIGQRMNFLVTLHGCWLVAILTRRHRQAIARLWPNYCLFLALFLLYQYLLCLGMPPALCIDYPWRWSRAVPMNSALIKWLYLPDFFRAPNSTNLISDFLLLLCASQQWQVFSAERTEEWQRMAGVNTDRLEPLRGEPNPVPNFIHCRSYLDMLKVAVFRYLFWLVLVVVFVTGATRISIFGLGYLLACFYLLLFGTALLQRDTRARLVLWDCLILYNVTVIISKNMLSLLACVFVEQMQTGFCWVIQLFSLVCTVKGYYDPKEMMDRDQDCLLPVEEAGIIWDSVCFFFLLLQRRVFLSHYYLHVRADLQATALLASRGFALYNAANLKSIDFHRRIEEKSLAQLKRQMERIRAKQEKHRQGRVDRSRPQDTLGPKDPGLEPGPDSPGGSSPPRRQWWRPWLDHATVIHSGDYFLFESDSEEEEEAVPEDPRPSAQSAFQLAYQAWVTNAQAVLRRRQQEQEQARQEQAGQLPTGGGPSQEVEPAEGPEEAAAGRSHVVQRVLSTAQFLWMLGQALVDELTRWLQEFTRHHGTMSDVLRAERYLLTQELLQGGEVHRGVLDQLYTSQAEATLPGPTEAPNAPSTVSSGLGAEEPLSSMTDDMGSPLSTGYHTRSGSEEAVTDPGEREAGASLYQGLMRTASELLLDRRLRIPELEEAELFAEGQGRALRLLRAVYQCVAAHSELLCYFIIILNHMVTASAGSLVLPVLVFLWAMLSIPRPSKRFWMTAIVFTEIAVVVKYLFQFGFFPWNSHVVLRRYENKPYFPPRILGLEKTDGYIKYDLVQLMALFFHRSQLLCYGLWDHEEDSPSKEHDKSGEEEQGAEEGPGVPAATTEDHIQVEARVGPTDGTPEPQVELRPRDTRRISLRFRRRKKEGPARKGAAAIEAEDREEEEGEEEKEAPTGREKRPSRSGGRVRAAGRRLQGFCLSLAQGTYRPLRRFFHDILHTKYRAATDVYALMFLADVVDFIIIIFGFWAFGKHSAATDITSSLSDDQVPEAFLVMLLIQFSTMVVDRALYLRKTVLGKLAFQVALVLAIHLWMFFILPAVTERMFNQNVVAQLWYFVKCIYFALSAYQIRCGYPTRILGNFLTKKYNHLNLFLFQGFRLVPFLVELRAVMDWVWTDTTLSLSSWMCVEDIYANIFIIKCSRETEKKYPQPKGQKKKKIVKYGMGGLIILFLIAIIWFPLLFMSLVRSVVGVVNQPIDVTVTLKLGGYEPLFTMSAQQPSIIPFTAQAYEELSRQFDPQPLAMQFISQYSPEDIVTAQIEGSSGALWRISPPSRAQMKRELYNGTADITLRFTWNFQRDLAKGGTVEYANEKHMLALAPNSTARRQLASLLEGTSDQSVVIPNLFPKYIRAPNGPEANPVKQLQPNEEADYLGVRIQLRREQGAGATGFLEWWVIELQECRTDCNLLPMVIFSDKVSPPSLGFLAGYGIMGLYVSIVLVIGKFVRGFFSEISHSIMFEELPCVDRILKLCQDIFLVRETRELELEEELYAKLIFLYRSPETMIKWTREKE
T2 sequence (P35408 whole entry): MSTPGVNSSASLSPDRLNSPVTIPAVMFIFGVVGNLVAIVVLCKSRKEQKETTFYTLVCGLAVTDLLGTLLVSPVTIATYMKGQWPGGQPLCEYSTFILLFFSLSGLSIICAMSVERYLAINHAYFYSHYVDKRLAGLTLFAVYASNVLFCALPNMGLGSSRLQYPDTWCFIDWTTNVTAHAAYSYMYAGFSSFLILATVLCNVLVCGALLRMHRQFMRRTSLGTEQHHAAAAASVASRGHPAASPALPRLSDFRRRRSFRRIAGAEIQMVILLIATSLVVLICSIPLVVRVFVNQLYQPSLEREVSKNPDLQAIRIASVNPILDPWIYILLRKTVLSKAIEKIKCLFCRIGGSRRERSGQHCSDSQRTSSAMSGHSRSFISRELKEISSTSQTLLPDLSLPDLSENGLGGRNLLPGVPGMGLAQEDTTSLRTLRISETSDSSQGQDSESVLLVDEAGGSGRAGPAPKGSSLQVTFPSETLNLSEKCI

## O=C(O)c1ccc(-c2nnc(SCc3c(Cl)cccc3Cl)s2)cc1 [KC159]
[1]
  EC50: 2.28 µM

## O=C([O-])c1ccc(-c2nnc(SCc3c(Cl)cccc3Cl)s2)cc1.[K+] [KC289]
[2]
  Binding to the other proteins of the screen: little or no binding
[1]
  EC50: 1.14 µM
[3]
  Binding to prostanoid EP4 receptors: modest interaction

## Clc1cccc(Cl)c1CSc1nnc(-c2cnccn2)s1 [Yoda1, 2‐[5‐[[(2,6‐dichlorophenyl)methyl]thio]‐1,3,4‐thiadiazol‐2‐yl]pyrazine]
Mouse PIEZO2 (mPIEZO2)
  Activation of PIEZO2: does not activate; also recorded: not to activate
